According to BindingDB's records for doi:10.1016/j.bmcl.2009.08.049 (Genentech, 2009):

biological target: Sonic hedgehog protein (Mus musculus, UniProt Q62226); test: Inhibition of SHH in mouse C3H10T1/2 cells by Gli-luciferase reporter gene assay
Sequence (Q62226 25-198 limits assumed): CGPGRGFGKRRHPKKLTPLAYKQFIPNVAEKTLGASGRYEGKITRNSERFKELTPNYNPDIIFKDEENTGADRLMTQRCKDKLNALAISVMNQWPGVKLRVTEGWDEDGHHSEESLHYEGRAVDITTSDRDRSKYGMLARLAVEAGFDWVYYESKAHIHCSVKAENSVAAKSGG

SMILES	IC50 [nM]
O=C(Nc1ccc(Cl)c(-c2ccccn2)c1)c1cccc(Cl)c1 [3-chloro-N-(4-chloro-3-(pyridin-2-yl)phenyl)benzamide]	1500
Cc1nc(C(F)(F)F)ccc1C(=O)Nc1ccc(Cl)c(-c2nc3ccccc3[nH]2)c1 [N-(3-(1H-benzo[d]imidazol-2-yl)-4-chlorophenyl)-2-methyl-6-(trifluoromethyl)nicotinamide]	12
Cc1nc(C(F)(F)F)ccc1C(=O)Nc1ccc(Cl)c(-c2nc3ccccc3s2)c1 [N-(3-(benzo[d]thiazol-2-yl)-4-chlorophenyl)-2-methyl-6-(trifluoromethyl)nicotinamide]	70
Cc1nc(C(F)(F)F)ccc1C(=O)Nc1ccc(Cl)c(-c2nc3ccccc3n2C)c1 [N-(4-chloro-3-(1-methyl-1H-benzo[d]imidazol-2-yl)phenyl)-2-methyl-6-(trifluoromethyl)nicotinamide]	9
Cc1nc(C(F)(F)F)ccc1C(=O)Nc1ccc(Cl)c(-c2ccn(C)n2)c1 [N-(4-chloro-3-(1-methyl-1H-pyrazol-3-yl)phenyl)-2-methyl-6-(trifluoromethyl)nicotinamide]	550
Cc1nc(C(F)(F)F)ccc1C(=O)Nc1ccc(Cl)c(-c2nc3c(n2C)CCCC3)c1 [N-(4-chloro-3-(1-methyl-4,5,6,7-tetrahydro-1H-benzo[d]imidazol-2-yl)phenyl)-2-methyl-6-(trifluoromethyl)nicotinamide]	150
Cc1nc(C(F)(F)F)ccc1C(=O)Nc1ccc(Cl)c(-n2cc3ccccc3n2)c1 [N-(4-chloro-3-(2H-indazol-2-yl)phenyl)-2-methyl-6-(trifluoromethyl)nicotinamide]	80
Cc1c[nH]c(-c2cc(NC(=O)c3ccc(C(F)(F)F)nc3C)ccc2Cl)n1 [N-(4-chloro-3-(5-methyl-1H-imidazol-2-yl)phenyl)-2-methyl-6-(trifluoromethyl)nicotinamide]	256
Cc1nc(C(F)(F)F)ccc1C(=O)Nc1ccc(Cl)c(-c2cc3ccccn3c2)c1 [N-(4-chloro-3-(indolizin-2-yl)phenyl)-2-methyl-6-(trifluoromethyl)nicotinamide]	4200
Cc1nc(C(F)(F)F)ccc1C(=O)Nc1ccc(Cl)c(C(=O)Nc2ccccc2)c1 [N-(4-chloro-3-(phenylcarbamoyl)phenyl)-2-methyl-6-(trifluoromethyl)nicotinamide]	140
Cc1nc(C(F)(F)F)ccc1C(=O)Nc1ccc(Cl)c(-c2cc3ccccn3n2)c1 [N-(4-chloro-3-(pyrazolo[1,5-a]pyridin-2-yl)phenyl)-2-methyl-6-(trifluoromethyl)nicotinamide]	170
O=C(Nc1ccc(Cl)c(-c2ccccn2)c1)c1ccncc1 [N-(4-chloro-3-(pyridin-2-yl)phenyl)isonicotinamide]	700
O=C(Nc1ccc(Cl)c(-c2ccccn2)c1)c1cccnc1 [N-(4-chloro-3-(pyridin-2-yl)phenyl)nicotinamide]	600
Cc1nc(C(F)(F)F)ccc1C(=O)Nc1ccc(Cl)c(-c2cccnc2)c1 [N-(4-chloro-3-(pyridin-3-yl)phenyl)-2-methyl-6-(trifluoromethyl)nicotinamide]	10000
Cc1nc(C(F)(F)F)ccc1C(=O)Nc1ccc(Cl)c(-c2ccncc2)c1 [N-(4-chloro-3-(pyridin-4-yl)phenyl)-2-methyl-6-(trifluoromethyl)nicotinamide]	2400
Cc1nc(C(F)(F)F)ccc1C(=O)Nc1ccc(Cl)c(-c2ncccn2)c1 [N-(4-chloro-3-(pyrimidin-2-yl)phenyl)-2-methyl-6-(trifluoromethyl)nicotinamide]	8000

The remaining lines, values ahead:

IC50 [nM]	SMILES
110	O=C(Nc1ccc(Cl)c(-c2ccccn2)c1)c1ccccc1Cl [2-chloro-N-(4-chloro-3-(pyridin-2-yl)phenyl)benzamide]
1500	O=C(Nc1ccc(Cl)c(-c2ccccn2)c1)c1ccc(Cl)cc1 [4-chloro-N-(4-chloro-3-(pyridin-2-yl)phenyl)benzamide]
500	Cc1nc(C(F)(F)F)ccc1C(=O)Nc1ccc(Cl)c(-c2cc3ccccc3[nH]2)c1 [N-(4-chloro-3-(1H-indol-2-yl)phenyl)-2-methyl-6-(trifluoromethyl)nicotinamide]
450	Cc1nc(C(F)(F)F)ccc1C(=O)Nc1ccc(Cl)c(-n2cccn2)c1 [N-(4-chloro-3-(1H-pyrazol-1-yl)phenyl)-2-methyl-6-(trifluoromethyl)nicotinamide]
9000	Cc1nc(C(F)(F)F)ccc1C(=O)Nc1ccc(Cl)c(-c2cc[nH]n2)c1 [N-(4-chloro-3-(1H-pyrazol-3-yl)phenyl)-2-methyl-6-(trifluoromethyl)nicotinamide]
200	Cc1nc(C(F)(F)F)ccc1C(=O)Nc1ccc(Cl)c(-c2cn3ccsc3n2)c1 [N-(4-chloro-3-(imidazo[2,1-b]thiazol-6-yl)phenyl)-2-methyl-6-(trifluoromethyl)nicotinamide]
1700	Cc1nc(C(F)(F)F)ccc1C(=O)Nc1ccc(Cl)c(-c2cnccn2)c1 [N-(4-chloro-3-(pyrazin-2-yl)phenyl)-2-methyl-6-(trifluoromethyl)nicotinamide]
130	Cc1ccc(C(=O)Nc2ccc(Cl)c(-c3ccccn3)c2)c(C)n1 [N-(4-chloro-3-(pyridin-2-yl)phenyl)-2,6-dimethylnicotinamide]
42	Cc1nc(C(F)(F)F)ccc1C(=O)Nc1ccc(Cl)c(-c2ccccn2)c1 [N-(4-chloro-3-(pyridin-2-yl)phenyl)-2-methyl-6-(trifluoromethyl)nicotinamide]
120	CS(=O)(=O)c1cccc(C(=O)Nc2ccc(Cl)c(-c3ccccn3)c2)c1 [N-(4-chloro-3-(pyridin-2-yl)phenyl)-3-(methylsulfonyl)benzamide]
40	CS(=O)(=O)c1ccc(C(=O)Nc2ccc(Cl)c(-c3ccccn3)c2)cc1 [N-(4-chloro-3-(pyridin-2-yl)phenyl)-4-(methylsulfonyl)benzamide]
800	O=C(Nc1ccc(Cl)c(-c2ccccn2)c1)c1ccccc1 [N-(4-chloro-3-(pyridin-2-yl)phenyl)benzamide]
3000	O=C(Nc1ccc(Cl)c(-c2ccccn2)c1)c1ccccn1 [N-(4-chloro-3-(pyridin-2-yl)phenyl)picolinamide]
52	Cc1nc(C(F)(F)F)ccc1C(=O)Nc1ccc(Cl)c(-c2cnc3ccccc3n2)c1 [N-(4-chloro-3-(quinoxalin-2-yl)phenyl)-2-methyl-6-(trifluoromethyl)nicotinamide]
